Measurements from patent US5068247A, “2-aminopentanoic acid compounds and their use as immunosuppressants” (priority 1989, dated 1991).
Converted amounts (≈) assume the structure as drawn. Where two headings read alike, the source gives them in different places.

What was measured:
Assay type in all cases: cell-based
[1] = test system: CTLL-2 cells; test: suppression of proliferation of IL-2-dependent mouse cell line CTLL-2 induced by IL-2; settings: IL-2 50 U/ml; for inhibition at 0.01 µg/mL / inhibition at 0.1 µg/mL / inhibition at 1 µg/mL / inhibition at 0.001 µg/mL: Mus musculus, CTLL-2, 68 h; for inhibition at 0.001 µg/mL: read-out: Suppression, 0.001 μg/ml
Experimental: IL-2-dependent mouse cell line CTLL-2 cells were suspended in the RPMI1640 culture medium supplemented with 30% FCS to the concentration of 4×10^5 cells/ml. Fifty μl of the cell suspension, 50 μl of 200 U/ml recombinant human IL-2 (rhIL-2) and 100 μl of the test substance were added to a 96-well flat-bottomed microtest plate. […] The percent suppression (%) was calculated by the following formula. [formula]

[2] = test system: IL-3 production in PHA-stimulated mouse spleen cells; test: suppression of IL-3 production in PHA-stimulated mouse spleen cells; settings: for inhibition at 0.001 µg/mL / inhibition at 0.01 µg/mL / inhibition at 0.1 µg/mL / inhibition at 1 µg/mL: Mus musculus, 24 h, read-out: Suppression
Experimental: The suppression of IL-2 and IL-3 production in the mitogen-stimulated mouse spleen cells was examined as follows:
The spleen was resected from 5- to 8-week-old male C3H/HeN mice, and a single cell suspension of spleen cells was prepared by using the RPMI1640 culture medium. After hemolytic treatment, the concentration of the suspension was adjusted to 10^7 cells/ml by using the RPMI1640 culture medium supplemented with 20% FCS, to which 10 μg/ml of phytohemagglutinin (PHA) was added as mitogen. […] After termination of culture, the supernatant was collected and used as the culture supernatant of PHA-stimulated mouse spleen cells.
The IL-3 activity was assayed as follows:
IL-3-dependent mouse cell line FDC-P2 cells were suspended in the RPMI1640 culture medium supplemented with 10% FCS to the concentration of 2×10^5 cells/ml. One hundred μl of the cell suspension and 100 μl of the two-fold serial dilution of the culture supernatant of PHA-stimulated mouse spleen cells described above were added to a 96-well flat-bottomed microtest plate. […] The IL-3 activity is expressed in U/ml as the dilution at which the absorbancy measured by MTT method was 50% of the maximum.

[3] = test system: mouse allogenic MLR (BALB/c mouse spleen cells stimulated with C57BL/6 mouse spleen cells); test: mouse allogenic mixed lymphocyte reaction (MLR), 3H-thymidine uptake
Experimental: The immunosuppressive activity of the compounds was assayed on the basis of mouse allogenic mixed lymphocyte reaction (hereinafter sometimes abbreviated as MLR). Mouse allogenic MRL was carried out using a mixed culture of BALB/c mouse (H-2^d) spleen cells as the responder cells and mitomycin C-treated C57BL/6 ([…]) mouse spleen cells as the stimulator cells in equal amounts.
The responder cells were prepared as follows:
The spleen was resected from 5- to 6-week-old BALB/c mice, and single cell suspension of spleen cells was prepared by using the RPMI1640 culture medium (containing 60 μg/ml of kanamycin sulfate, 2 mM of L-glutamine, 10 mM of N-2-hydroxyethylpiperazine-N'-2-ethanesulphonate (HEPES) and 0.1% sodium hydrogencarbonate) to which heat-inactivated fetal calf serum (hereinafter sometimes abbreviated as FCS) had been added to 5%. After hemolytic treatment, the cell suspension was adjusted to a concentration of 10^7 cells/ml with the RPMI1640 culture medium supplemented with 10^-4 M 2-mercapto-ethanol and 20% FCS, and was used as the responder cell suspension.
The stimulator cells were prepared as follows: The spleen was resected from 5- to 6-week-old male C57BL/6 mice, and a single cell suspension of spleen cells was prepared by using the RPMI1640 culture medium. After hemolytic treatment, the cells were treated with 40 μg/ml of mitomycin C at 37° C. for 60 minutes. After washing three times, the cell suspension was adjusted to a concentration of 10^7 cells/ml with the RPMI1640 culture medium supplemented with 10^-4 M 2-mercapto-ethanol and 20% FCS, and was used as the stimulator cell suspension.
The blastogenesis of lymphocytes was assayed using ^3 H-thymidine uptake as an index. That is, after termination of culture, 18.5 KBq/well of ^3 H-thymidine was added thereto and the suspension was cultured for 4 hours. Cells were harvested by a cell-harvester, and the radioactivity incorporated into the cells was determined by a liquid scintillation counter, which was used as an index of blastogenesis of lymphocytes in the mouse allogenic MLR. The suppression of the mouse allogenic MLR was evaluated by calculating the percent suppression by the following formula.
The test substance dissolved in methanol was diluted with the RPMI1640 culture medium and put to use.

[4] = Mus musculus, Lymphocyte, read-out: Suppression

CCCCCCCCCCCCC/C=C/C[C@@H](O)[C@H](O)[C@@](N)(CO)C(=O)O [Example 5]
optical density (OD570) ([1]; 0.01 μg/ml, Table 6B): 0.915 | optical density (OD570) ([1]; 0.1 μg/ml, Table 6B): 0.322 | optical density (OD570) ([1]; 1 μg/ml, Table 6B): 0.239 | inhibition at 0.01 µg/mL ([1]; 0.01 μg/ml, Table 6B, read-out: Suppression): 4.9% | inhibition at 0.1 µg/mL ([1]; 0.1 μg/ml, Table 6B, read-out: Suppression): 68.3% | inhibition at 1 µg/mL ([1]; 1 μg/ml, Table 6B, read-out: Suppression): 77.2% | IL-3 activity ([2]; 0.001 μg/ml): 22.0 U/ml | IL-3 activity ([2]; 0.01 μg/ml): 13.2 U/ml | IL-3 activity ([2]; 0.1 μg/ml): 12.0 U/ml | IL-3 activity ([2]; 1 μg/ml): 9.5 U/ml | inhibition at 0.001 µg/mL ([2]; 0.001 μg/ml): 10.2% | inhibition at 0.01 µg/mL ([2]; 0.01 μg/ml): 10.2% | inhibition at 0.1 µg/mL ([2]; 0.1 μg/ml): 51% | inhibition at 1 µg/mL ([2]; 1 μg/ml): 62.2% | 3H-thymidine uptake ([3]; 0.0001 μg/ml; Table 1A): 15747 cpm | 3H-thymidine uptake ([3]; 0.0001 μg/ml; Table 1B): 4485 ± 812 cpm | Suppression ([3]; 0.0001 μg/ml; Table 1B): 18.1% | 3H-thymidine uptake ([3]; 0.001 μg/ml; Table 1A): 2384 cpm | 3H-thymidine uptake ([3]; 0.001 μg/ml; Table 1B): 6101 ± 356 cpm | Suppression ([3]; 0.001 μg/ml; Table 1B): 0% | 3H-thymidine uptake ([3]; 0.01 μg/ml; Table 1A): 1421 cpm | 3H-thymidine uptake ([3]; 0.01 μg/ml; Table 1B): 1013 ± 314 cpm | 3H-thymidine uptake ([3]; 0.1 μg/ml; Table 1A): 1091 cpm | 3H-thymidine uptake ([3]; 0.1 μg/ml; Table 1B): 359 ± 54 cpm | 3H-thymidine uptake ([3]; 1 μg/ml; Table 1A): 1163 cpm | 3H-thymidine uptake ([3]; 1 μg/ml; Table 1B): 52 ± 24 cpm | inhibition at 0.0001 µg/mL ([3]; Mus musculus, Lymphocyte, 0.0001 μg/ml; Table 1A; read-out: Suppression): 16% | inhibition at 0.001 µg/mL ([3]; Mus musculus, Lymphocyte, 0.001 μg/ml; Table 1A; read-out: Suppression): 95.5% | inhibition at 0.01 µg/mL ([3]; Mus musculus, Lymphocyte, 0.01 μg/ml; Table 1A; read-out: Suppression): 100% | inhibition at 0.01 µg/mL ([3]; Mus musculus, Lymphocyte, 0.01 μg/ml; Table 1B; read-out: Suppression): 92.2% | inhibition at 0.1 µg/mL ([3]; Mus musculus, Lymphocyte, 0.1 μg/ml; Table 1A; read-out: Suppression): 100% | inhibition at 0.1 µg/mL ([3]; Mus musculus, Lymphocyte, 0.1 μg/ml; Table 1B; read-out: Suppression): 100% | inhibition at 1 µg/mL ([3]; Mus musculus, Lymphocyte, 1 μg/ml; Table 1A; read-out: Suppression): 100% | inhibition at 1 µg/mL ([3]; Mus musculus, Lymphocyte, 1 μg/ml; Table 1B; read-out: Suppression): 100% | IC50 ([3]; Mus musculus, Lymphocyte; read-out: 50%-inhibition concentration (IC50) in mouse allogenic MLR): 0.25 ng/mL (≈ 0.000645 µM)

CCCCCCCCCCCCCCCC[C@@H](O)[C@H](O)[C@@](N)(CO)C(=O)O [Example 2]
optical density (OD570) ([1]; 0.001 μg/ml, Table 6A): 0.555 | optical density (OD570) ([1]; 0.001 μg/ml, Table 6B): 0.898 | optical density (OD570) ([1]; 0.01 μg/ml, Table 6A): 0.543 | optical density (OD570) ([1]; 0.01 μg/ml, Table 6B): 0.880 | optical density (OD570) ([1]; 0.1 μg/ml, Table 6A): 0.558 | optical density (OD570) ([1]; 0.1 μg/ml, Table 6B): 0.774 | optical density (OD570) ([1]; 1 μg/ml, Table 6A): 0.161 | optical density (OD570) ([1]; 1 μg/ml, Table 6B): 0.508 | inhibition at 0.001 µg/mL ([1]; Table 6A): 5.3% | inhibition at 0.001 µg/mL ([1]; Table 6B): 6.7% | inhibition at 0.01 µg/mL ([1]; read-out: Suppression, 0.01 μg/ml, Table 6A): 7.4% | inhibition at 0.01 µg/mL ([1]; read-out: Suppression, 0.01 μg/ml, Table 6B): 8.7% | inhibition at 0.1 µg/mL ([1]; read-out: Suppression, 0.1 μg/ml, Table 6A): 4.8% | inhibition at 0.1 µg/mL ([1]; read-out: Suppression, 0.1 μg/ml, Table 6B): 20% | inhibition at 1 µg/mL ([1]; read-out: Suppression, 1 μg/ml, Table 6A): 72.6% | inhibition at 1 µg/mL ([1]; read-out: Suppression, 1 μg/ml, Table 6B): 48.4% | IL-3 activity ([2]; 0.001 μg/ml): 26.0 U/ml | IL-3 activity ([2]; 0.01 μg/ml): 13.9 U/ml | IL-3 activity ([2]; 0.1 μg/ml): 11.3 U/ml | IL-3 activity ([2]; 1 μg/ml): 7.5 U/ml | inhibition at 0.001 µg/mL [2]: 29.3% | inhibition at 0.01 µg/mL [2]: 62.2% | inhibition at 0.1 µg/mL [2]: 69.3% | inhibition at 1 µg/mL [2]: 79.6% | 3H-thymidine uptake ([3]; 0.001 μg/ml; Table 1A): 17981 cpm | 3H-thymidine uptake ([3]; 0.01 μg/ml; Table 1A): 12011 cpm | 3H-thymidine uptake ([3]; 0.1 μg/ml; Table 1A): 2329 cpm | 3H-thymidine uptake ([3]; 1 μg/ml; Table 1A): 1869 cpm | IC50 ([3]; Mus musculus, Lymphocyte, read-out: 50%-inhibition concentration (IC50) in mouse allogenic MLR): 16 ng/mL (≈ 0.0411 µM) | inhibition at 0.001 µg/mL [3, 4]: 2.7% | inhibition at 0.01 µg/mL [3, 4]: 38.2% | inhibition at 0.1 µg/mL [3, 4]: 95.8% | inhibition at 1 µg/mL [3, 4]: 98.6%
